Reference: patent US20240390487A1, “TLR AGONISTS FOR REDUCING ACTIVATION-INDUCED PD-1 EXPRESSION ON T CELLS AND METHODS OF USE” (WISCONSIN ALUMNI RESEARCH FOUNDATION, priority 2016, published 2024)

Key:
OT-1 CD8+ T cells = experiment: Adoptive transfer of OT-1 T cells and immunization of C57BL/6 mice, marker expression on splenic OT-1 T cells; format: in vivo; settings: OVA or FT peptide immunization with TLR ligand versus peptide alone; splenocytes up to 14 days; early after T-cell activation
Source text: Vaccine type can affect expression of T-cell checkpoint molecules on activated CD8+ T cells: This Example used an ovalbumin vaccination model. OT-1 cells were adoptively transferred to naïve C57BL/6 mice. The day after transfer, mice were immunized once with (a) DNA encoding ovalbumin, (b) Listeria monocytogenes (Lm) encoding ovalbumin, (c) OVA257-264 peptide (SIINFEKL (SEQ ID NO:1)), (d) SIINFEKL peptide (SEQ ID NO:1) with DNA vector, (e) DNA vector alone, (f) Lm encoding control vector with no antigen, or (g) NS (non-specific) peptide. Splenocytes were collected the day after vaccination for expression of cell surface markers on antigen-specific OT-1 cells. […] LAG-3 expression was not reduced in the presence of Lm co-administered with peptide.
TLR stimulation at the time of T-cell activation reduced expression of PD-1 in vivo: To determine whether TLR stimulation at the time of T-cell activation with vaccination elicited a similar reduction in PD-1 in vivo, OT-1 cells were adoptively transferred to naïve C57BL/6 mice as above, and immunized once with OVA or FT peptide (or non-specific peptide) one day later in the presence or absence of a TLR 1/2, TLR7, or TLR9 ligand. Splenocytes were collected from groups up to 14 days after immunization and evaluated for expression of 4-1BB, PD-1 and LAG-3.
Adoptive transfer and immunization of wild type C57BL/6 (B6) mice: OT-1 splenocytes were harvested and CD8+ T cells were isolated as described above. 2×10^6 OT-1 T cells were adoptively transferred into 6- to 10-week old female B6 mice via intraperitoneal injection. The day following transfer, mice were immunized subcutaneously with 100 μg SIINFEKL peptide (SEQ ID NO:1) in PBS without adjuvant, intradermally with 100 μg plasmid encoding full length secreted chicken egg ovalbumin (pCI-neo-sOVA (psOVA), Addgene plasmid #25098, Cambridge, MA), intraperitoneally with 5×10^6 cfu of a Listeria monocytogenes vector encoding ovalbumin (Lm-OVA, gift of JD Sauer), or vehicle or corresponding wild-type Lm or DNA plasmid vector. TLR agonists were co-injected with the vaccine at the following concentrations: 20 μg/mouse Pam3CSK4, 100 μg/mouse Gardiquimod, 50 μg/mouse ODN 1826, or vehicle. Mice were euthanized at the times indicated. Spleens were collected, processed as described above, and T-cell populations analyzed by flow cytometry. Data collected on different days were normalized using rainbow beads (Spherotech, Lake Forest, IL; RFP-30-5A).

CD8+ OT-1 T cells = settings: for Eomesodermin (EOMES gene) expression / expression of genes associated with T-cell regulation (including PD-1 and IL-10): 24 to 72 hours, versus peptide alone
Procedure: CD8+ OT-1 T cells were then purified and evaluated for gene expression changes by RNA sequencing (RNA-seq).
RNA preparation and sequencing: Cells were stimulated in vitro as above, and at the times indicated T cells were isolated via immunomagnetic negative selection (StemCell, Vancouver, Canada 19853), RNA was collected as per the manufacturers instruction (Direct-zol RNA MiniPrep Plus w/TRI Reagent, Zymo Research), treated with DNAse (TURBO DNA-free Kit, Invitrogen), and stored at −80° C. until analysis at the UW-Madison Biotechnology Center. Total RNA was verified for purity and integrity via a NanoDrop2000 Spectrophotometer and Agilent 2100 BioAnalyzer, respectively. Samples that met the Illumina sample input guidelines were prepared using the Illumina® TruSeq® Stranded mRNA Sample Preparation kits (Illumina Inc., San Diego, California, USA). For each library preparation, mRNA was purified from 1000 ng total RNA using poly-T oligo-attached magnetic beads. Subsequently, each poly-A enriched sample was fragmented using divalent cations under elevated temperature. The fragmented RNA was synthesized into double-stranded cDNA using SuperScript II Reverse Transcriptase (Invitrogen, Carlsbad, California, USA) and random primers for first strand cDNA synthesis followed by second strand synthesis using DNA Polymerase I and RNAse H for removal of mRNA. Double-stranded cDNA was purified by paramagnetic beads (Agencourt AMPure XP beads, Beckman Coulter). The cDNA products were incubated with Klenow DNA Polymerase and DNA fragments, ligated to Illumina adapters, and purified by paramagnetic beads. Adapter ligated DNA was amplified in a Linker Mediated PCR reaction (LM-PCR) for 11 cycles using Phusion™ DNA Polymerase and Illumina's PE genomic DNA primer set and then purified by paramagnetic beads. Quality and quantity of the finished libraries were assessed using an Agilent DNA1000 chip (Agilent Technologies. Inc., Santa Clara, CA, USA) and Qubit® dsDNA HS Assay Kit (Invitrogen, Carlsbad, California, USA), respectively. Libraries were standardized to 2 μM. Cluster generation was performed using standard Cluster Kit (v3) and the Illumina Cluster Station. Single 100 bp sequencing was performed, using standard SBS chemistry (v4) on an Illumina HiSeq2500 sequencer. Images were analyzed using the standard Illumina Pipeline, version 1.8.2.
RNA sequencing data analysis: Illumina sequencing reads were adapter and quality trimmed using the Skewer trimming program. Quality reads were subsequently aligned to the annotated reference genome using the STAR aligner (43). Quantification of expression for each gene was calculated by RSEM (44), the expected read counts from RSEM were filtered for low/empty values and used for differential gene expression analysis using DESeq2 (45). All remaining genes from the pairwise comparisons were analyzed using Gene Set Enrichment Analysis (GSEA) (46, 47) to identify pathways (based on GO terms (c5.all.v6) from the Molecular Signatures Database (MSigDB (48)) as well as custom gene sets involved in TLR1/2 versus TLR7 ligand activation. GSEA was performed by calculating a ranked vector as log2 fold-change. Analysis was performed using R 3.3.1 (49) and Bioconductor 2.32.0 (50). Venn diagrams were generated using the VennDiagram package.

Row | Compound | PD-1 expression on OT-1 CD8+ T cells in vivo (OT-1 CD8+ T cells) | expression of genes associated with Th1-biased cytotoxic effector function (IFNγ, TNFα, granzymes A-C, perforin, T-Bet) (CD8+ OT-1 T cells) | Eomesodermin (EOMES gene) expression (CD8+ OT-1 T cells) | expression of genes associated with T-cell regulation (including PD-1 and IL-10) (CD8+ OT-1 T cells)
1 | CCNCc1nc2c(N)nc3ccccc3c2n1CC(C)(C)O [Gardiquimod] | significantly reduced | induced | reduced | reduced
2 | Pam3CSK4 | significantly reduced | induced | reduced | reduced
